Laboratory results from patent US6448030B1, “Method for predicting the efficacy of anti-cancer drugs” (University of Nevada-Las Vegas, priority 2000, dated 2002).

What was measured:
[1] = system: human breast cancer cells; assay: Haptotactic migration of breast cancer cells towards fibronectin in a migration plate, migrated cells labeled with calcein-AM; assay type: cell-based; details: for inhibition of migration, dose dependence: sublethal concentration
Method: (§1) After 18 hours, migrated cells were labeled with calcein-AM and fluorescence quantitated from the bottom. Nonmigrated cells were labeled with propidium iodide and fluorescence quantitated from the top. Estimation of 100% cell death was made by lysing cells in a test chamber with 1% Triton X-100 (TX 100) Error bars represent the standard deviation of 4-16 replicate test chambers. Asterisks represent a significant difference from migration without drugs (P<0.05). RFU=relative fluorescence units.
(§2) The cell suspension was added to the first chamber of a migration plate containing 96 chambers per plate at a concentration of about 80,000 cells per chamber. The migration plate used in this assay was manufactured by Polyfiltronics. Similar plates are available from Becton-Dickinson (U.S. Pat No. 5,801,055). The second chamber contained either haptotactic stimulus in the form of 20 μg/ml fibronectin or chemotactic in the form of 5% fetal calf serum. Cells were allowed to migrate in a humidified incubator at 37° C. and 5% carbon dioxide […].
(§3) During the last half hour of the incubation, calcein-AM (Molecular Probes, Eugene, Oreg.) was added to the second chamber to a final concentration of 5 μM and propidium iodide was added to the first chamber to a final concentration of 30 μM. At the end of the incubation the underside of the filters were washed twice in phosphate buffered saline. Fluorescence from each individual well chamber was measured from the bottom using 485 nm excitation and 530 nm emission filters.
(§4) Fluorescence from each individual well chamber was measured from the top using 560 nm excitation and 645 nm emission wavelength filters using a Tecan SpectraFluor fluorescent plate reader (Research Triangle Park NC). […] The asterisks represent a significant difference from positive control (p<0.05).

[2] = system: human breast cancer cells; assay: Chemotactic migration of breast cancer cells towards serum in a migration plate, migrated cells labeled with calcein-AM; assay type: cell-based; details: highly metastatic breast cells; for inhibition at 20 µM: 20 μM drug
Method: as §1, §2, §3, §4

[3] = haptotactic and chemotactic migration
[4] = Homo sapiens, serum stimulus, read-out: inhibition of chemotaxis

NC(=O)c1nnn(Cc2cc(Cl)c(C(=O)c3ccc(Cl)cc3)c(Cl)c2)c1N [CAI, carboxyamido-triazole]
inhibition of haptotaxis ([1]; 20 μM drug, fibronectin stimulus, highly metastatic breast cells): abolished haptotaxis | inhibition at 10 µM ([1]; Homo sapiens, 10 μM drug, fibronectin stimulus, highly metastatic breast cells, read-out: inhibition of haptotaxis): 32% | effectiveness at halting migration, comparison of the two drugs [1, 3]: more effective than tamoxifen at halting migration | inhibition of migration, dose dependence [1, 3]: inhibited migration in a dose-dependent manner at sublethal concentration | haptotactic migration inhibition relative to concentrations causing cell death ([1]; highly metastatic breast cells, FIGS. 3A, 3B): inhibited at lower concentrations than those that cause cell death | inhibition at 10 µM ([2]; Homo sapiens, 10 μM drug, serum stimulus, read-out: inhibition of chemotaxis): 7% | inhibition at 20 µM [2, 4]: 42% | chemotactic migration inhibition relative to concentrations causing cell death ([2]; FIGS. 3A, 3B): inhibited at lower concentrations than those that cause cell death

CC/C(=C(\c1ccccc1)c1ccc(OCCN(C)C)cc1)c1ccccc1 [tamoxifen]
inhibition of haptotaxis ([1]; 10 μM drug, fibronectin stimulus, highly metastatic breast cells): non-significant inhibition | inhibition at 20 µM ([1]; Homo sapiens, 20 μM drug, fibronectin stimulus, highly metastatic breast cells, read-out: inhibition of haptotaxis): 51% | inhibition of migration, dose dependence [1, 3]: inhibited migration in a dose-dependent manner at sublethal concentration | inhibition of chemotaxis ([2]; 10 μM drug, serum stimulus): non-significant inhibition | inhibition at 20 µM [2, 4]: 9%
